Tested on: Plasmodium falciparum
Assay: Antimicrobial activity against Plasmodium falciparum isolate TM3036 expressing 1 copies of pfmdr1 gene

Cl.OC(c1cc(C(F)(F)F)nc2c(C(F)(F)F)cccc12)C1CCCCN1 (stereo unspecified) [MEFLOQUINE HYDROCHLORIDE]
IC50: 1.47 ng/mL

From ChEMBL document CHEMBL1649136, “Plasmodium falciparum pfmdr1 amplification, mefloquine resistance, and parasite fitness” (Antimicrob Agents Chemother, 2009)
